One series deals with Sprague-Dawley rats. The experiment in a line: 14-day oral toxicity study in Sprague Dawley rats. In kind it is in vivo, rat. As for the experimental part: (§1) A Sprague Dawley Rat model was used to study oral toxicity and toxicokinetics. Animals were assigned to groups by a stratified randomization scheme designed to achieve similar group mean body weights and the groups were randomly assigned to a dosing to provide control of bias.
(§2) All animals were dosed via oral gavage once daily for 14 days. The animals were evaluated for changes in clinical signs (mortality/morbidity observations, twice daily), cage side observations (general appearance and behavior), food consumption (quantitatively measured by weighing), body weights, clinical pathology indices including serum chemistry, hematology, coagulation and urinalysis, and other parameters. Blood samples were collected for toxicokinetics analysis from Groups 6-10 at various time points on Days 1 and 14 (Group 6 4 hours post dose; Groups 7-10 at 1, 4 and 12 hours or 2, 8 and 24 hours). The animals were fasted for at least 8 hours prior to blood collections for serum chemistry and urine collection. Serum chemistry parameters tested included alanine aminotransferase, total protein, aspartate aminotransferase, albumin, alkaline phosphatase, globulin, gamma-glutamyl-transferase, albumin/globulin ratio, lactate dehydrogenase, glucose, total bilirubin, cholesterol, urea nitrogen, triglycerides, creatinine, sodium, calcium, potassium, phosphorus and chloride. Hematology parameters analyzed included red blood cell count, reticulocyte count, hemoglobin concentration, red blood cell distribution width, mean corpuscular volume, mean platelet volume, mean corpuscular hemoglobin concentration, white blood cell count and differentials and mean corpuscular hemoglobin. Urinalysis parameters included color/character, ketones, specific gravity, bilirubin, pH, occult blood, protein, glucose and microscopics. Main study animals were euthanized on Day 15. At termination, a full necropsy was conducted and all tissues were collected, preserved, processes and examined microscopically from Groups 1 and 5, and target organs (liver and kidney) from Groups 2-4, by a veterinary pathologist certified by the American College of Veterinary Pathologists.
(§3) Control vehicle included Peg-400 (Sigma P-3265), Tween 80 (Sigma P-8074) and PVP-K30 (polyvinyl pyrrolidone or povidone K-30, Spectrum PN P1454) at a ratio of 90:5:5, w/w/w. Appropriate amounts of Compound 102 were added to the control vehicle to produce homogeneous dosing solutions/suspensions.

Series [1] is described as follows: 14-day oral toxicity study in Sprague Dawley rats. The format is in vivo, rat. To be noted: Sprague-Dawley, rat, in vivo; SD rats, oral gavage once daily for 14 days; read-out: No-observed-adverse-effect level (NOAEL). As for the experimental part:
as §1, §2, §3

For series [2], the system named is orchidectomized male Sprague-Dawley rat. The experiment in a line: In vivo assay, orchidectomized mature male rats (14 days oral). The settings on record: for exposure (AUC24) at which muscle mass is stimulated above sham equivalent levels: ORX male rats, 14 days PO. An excerpt:
The orchidectomized male Sprague-Dawley rat model was used to assess the effects of Compound 102 on various reproductive, gonadotropin and musculoskeletal endpoints, including sex accessory organs, bone, serum gonadotropin levels and striated muscle in mature male rats.
In this assay, two-month old rats were acclimated in a vivarium for one week. After this acclimation period, rats were surgically orchidectomized under isoflurane anesthesia and left untreated for 14 days. After 14 days, animals were sorted into groups such that no statistically significant differences in mean body weights were observed. Rats began receiving treatment 14 days after the day of surgery. Sham-operated and orchidectomized rats, treated with vehicle, served as controls. The different test groups were treated with various doses of Compound 102 (0.03 to 100 mg/kg/day per os (by mouth)). Dosages included 0.03, 0.1, 0.3, 1, 3, 10, 30 and 100 mg/kg/day. Ostarine, a non-steroidal androgenic drug (Evans et al., J Clin Oncology 25: 9119 (2007)) was dosed at dosages similar to other test groups as a comparison. After the 14th dose, venous blood was collected at 0, 1, 2, 4 and 6 hours after dosing. The blood samples were collected in EDTA-containing tubes (Becton Dickinson, Franklin Lakes, N.J.). Approximately 24 hours after the last dose, animals were euthanized and seminal vesicle weights, ventral prostate weights, levator ani weights, preputial gland weights and blood samples were collected on necropsy.
For serum, whole blood (5 mL) was collected in vacutainer tubes (Becton Dickinson) and the blood samples were allowed to clot at room temperature for about 2 hours. Serum was separated by centrifugation at 2500 rpm for 30 minutes, collected and frozen (−80° C.). For plasma, whole blood was collected in EDTA-containing tubes by centrifugation at 1000×g for 5 minutes at 4° C. Plasma samples were stored at −20° C.
For the preparation of all dose formulations, the appropriate amount of test compound (Compound 102) for the highest concentration to be administered was weighed. The compound was suspended in the formulation vehicle (5% Tween®-80 polysorbate, 90% PEG-400 polyethylene glycol and 5% PVP-K30 polyvinylpyrrolidone). The suspension was sonicated for 15 minutes, and the resulting formulation was diluted using vehicle to obtain the proper volume and concentrations of the dosing materials to achieve a dosing volume of 1 mL/kg body weight.
Serum samples were assayed with a double anti-serum procedure using reagents from the National Institute of Diabetes and Digestive and Kidney Diseases (NIDDK). Sample compounds and standards (NIDDK-rLH-RP-3) in a total volume of 200 μL were incubated at room temperature for 2 to 3 days with 100 μL primary anti-serum (rat LH antiserum: rabbit NIDDK-anti-rLH-S-11) diluted 1:100,000. Then, 100 μL of ^125I-labeled LH (Covance Laboratories Madison, Wis.) diluted 200,000-300,000 cpm/mL was added to the tubes and incubation continued for an additional 24 hour period.
Bound hormone was separated from free hormone by precipitation with a specific goat ant-rabbit serum (GARS from Antibodies, Inc., Davis, Calif.). An aliquot of 50 μL of 4% normal rabbit serum was added to each incubation tube, after which an additional 50 μL of a 1:10 GARS solution was added. The tubes were vortexed and incubated overnight at 4° C.
The assay was terminated by centrifugation at 2,500 rpm for 30 minutes in a Sorvall RC 3C Plus centrifuge (rotor #H2000B) at 4° C. The supernatants were decanted and discarded and the pellets were counted in a 10-channel gamma-counter.
Serum osteocalcin, a vitamin K-dependent, calcium binding protein, is a biochemical marker that reflects bone formation activity (Gundberg, J Clin Ligand Assay 21: 128-138 (1998)). Serum osteocalcin was quantitated using an IRMA kit from Immutopics, Inc. (#50-1500, San Clemente, Calif.). […] The test uses two different antibodies to measure the serum osteocalcin. […]

Bounds are passed on as bounds.

The term NOAEL denotes the highest tested level that showed no adverse finding. Regarding `N#Cc1ccc(N2CCC[C@@H]2[C@@H](O)C(F)(F)F)cc1C(F)(F)F` [Compound 102, R,R-4-(2-(1-Hydroxyl-2,2,2-trifluoroethyl)-pyrrolidinyl)-2-trifluoromethyl-benzonitrile], the “morbidity / early death” value in the series with Sprague-Dawley rats (10, 100, 300 or 700 mg/kg/day, 14 days) is reported as “not associated with test article-related morbidity or early death”. For the same molecule, in the series on Sprague-Dawley rats (10-700 mg/kg/day), the “macroscopic or microscopic changes (postmortem)” value is “no macroscopic or microscopic changes” and the urinalysis parameters entry is listed as “no alterations”. The liver weight entry in the series with Sprague-Dawley rats (both sexes, not correlated with hepatocellular size or liver pathology) is “Dose-dependent liver weight increases”. Besides, the food consumption entry in the series on Sprague-Dawley rats (female animals, all dose levels) is “statistically significant increase in food consumption”. Further, in the series on Sprague-Dawley rats (female rats dosed at ≥10 mg/kg/day), the “alkaline phosphatase values and phosphorus concentrations” value is listed as “minimally higher”. Also, the “reticulocyte counts and red cell distribution width” value with Sprague-Dawley rats (female rats ≥10 mg/kg/day) is “higher reticulocyte counts and red cell distribution width”. For the same molecule, in the series with Sprague-Dawley rats (females ≥100 mg/kg/day, males 10 and 700 mg/kg/day), the platelet counts result is “increased with statistical significance”. Further, the prothrombin time result with Sprague-Dawley rats (male and female animals, 300 and 700 mg/kg/day) is on record as “minimal prolongation”. Besides, the body weight gain result in the series on Sprague-Dawley rats (male and female animals, versus control) is “increased weight gain compared to control animals”. Also, in the series with Sprague-Dawley rats (male rats ≥100 mg/kg/day, female rats ≥300 mg/kg/day), the triglyceride concentrations entry is “minimally lower”. Moreover, the potassium levels result in the series on Sprague-Dawley rats (male rats ≥300 mg/kg/day, female rats ≥100 mg/kg/day) is recorded as “minimally higher”. In the series with Sprague-Dawley rats (particularly female animals at ≥100 mg/kg/day), the clinical observations entry was “increased incidence and frequency in rough hair coat and nasal discharge”. For the same molecule, in series [1], the NOAEL at 14 days was 700 mg/kg/day. Further, the preputial gland weight result in series [2] (30 mg/kg/day, statistically significant) is given as “increased preputial gland weight above the sham level”. The “ventral prostate or seminal vesicles, % of sham levels” value in series [2] (100 mg/kg/day PO (highest dose)) is “approximately 50%”. For the same molecule, the “exposure (AUC24) at which muscle mass is stimulated above sham equivalent levels” value in series [2] was not below 1 µg·h/mL. Moreover, the preputial gland weight result in series [2] (all doses less than 10 mg/kg/day PO) is on record as “remained below vehicle equivalent levels”. The “ventral prostate, % of sham equivalent levels” value in series [2] (exposures of 1 μg·/mL or greater) is “less than 50%”.

For `C[C@](O)(COc1ccc(C#N)cc1)C(=O)Nc1ccc(C#N)c(C(F)(F)F)c1` [ostarine], in series [2], the “exposure (AUC24) at which muscle mass is stimulated above sham equivalent levels” value is given as “greater than 10 μg·/mL”. Besides, in series [2] (any dose), the “restoration of ventral prostate to sham equivalents” value is on record as “did not restore ventral prostate to sham equivalents at any dose”.
